Assay results published in ChEMBL document CHEMBL2086335, “Three new 12-carbamoylated streptothricins from Streptomyces sp. I08A 1776” (2012).
≈ marks a conversion by molar mass, not a printed value.

Key:
Format in all cases: functional
[1] = system: Mycobacterium tuberculosis; assay: Antibacterial activity against drug-resistant Mycobacterium tuberculosis 164 by microbroth dilution method
[2] = system: Mycobacterium tuberculosis; assay: Antibacterial activity against drug-resistant Mycobacterium tuberculosis 926 by microbroth dilution method
[3] = system: Mycobacterium tuberculosis; assay: Ratio of isoniazid MIC to compound MIC for extensively drug-resistant Mycobacterium tuberculosis
[4] = system: Mycobacterium tuberculosis; assay: Ratio of rifampicin MIC to compound MIC for extensively drug-resistant Mycobacterium tuberculosis

Compound | MIC [1] [µg/mL] | MIC [2] [µg/mL] | Ratio [3] | Ratio [4]
CO[C@H]1/C=C/O[C@@]2(C)Oc3c(C)c(O)c4c(O)c(c(/C=N/N5CCN(C)CC5)c(O)c4c3C2=O)NC(=O)/C(C)=C\C=C\[C@H](C)[C@H](O)[C@@H](C)[C@@H](O)[C@@H](C)[C@H](OC(C)=O)[C@@H]1C [RIFAMPIN] | 32 (≈ 38.9 µM) | 16 (≈ 19.4 µM) | – | –
NNC(=O)c1ccncc1 [ISONIAZID] | 4 (≈ 29.2 µM) | 4 (≈ 29.2 µM) | – | –
NCCC[C@H](N)CC(=O)NCCC[C@H](N)CC(=O)N[C@@H]1[C@H](O)[C@@H](O)[C@@H](COC(N)=O)O[C@H]1/N=C1\N[C@@H]2[C@H](O)CNC(=O)[C@H]2N1 | 8 (≈ 12.7 µM) | 8 (≈ 12.7 µM) | – | –
NCCC[C@H](N)CC(=O)NCCC[C@H](N)CC(=O)N[C@@H]1[C@H](O)[C@@H](OC(N)=O)[C@@H](CO)O[C@H]1NC1=N[C@@H]2C(=O)NC[C@@H](O)[C@H]2N1 [STREPTOTHRICIN E] | 0.5 (≈ 0.793 µM) | 0.25 (≈ 0.396 µM) | 8 | 8
